# Several values for one entry are separate records, joined by “and”; a condition that tells them apart may be missing. Identical values can stand only once.
# How the values were obtained:
# [1] = system: S.aureus MRSA 43300 biofilm; assay: Biofilm formation of MRSA 43300, cannabinoid alone and combined with antibiotic (MBIC/FBIC/FBICI); format: cell-based; details: for MBIC AEA: AEA alone; for MBIC ARAS: ARAS alone
# [2] = system: MRSA strain CI; assay: Colony spreading on soft agar, MRSA CI
# Protocol: (§1) The swimming assay was performed on soft agar plates. 0.2% agar medium was prepared and autoclaved. The bacteria were exposed to the tested agents. 3 μl of overnight bacterial culture (O.D 595˜0.5) was inoculated at the centre of the agar plate. […] The plates were then incubated for 15 h.
# [3] = system: MRSA strain 43300; assay: Colony spreading on soft agar, MRSA 43300
# Protocol: as §1
# [4] = system: S. mutans biofilm; assay: CLSM live/dead staining of S. mutans biofilm
# Protocol: The bacterial viability and vitality of was analyzed by CLSM (Olympus Fluoview 300, Olympus, Japan) with a UPLSA 10×/0.4 lenses. The biofilm samples were grown overnight on 96 well. The biofilm was washed carefully using 200 μl PBS solution after overnight incubation, and then stained with 50 μl of LIVE/DEAD BacLight fluorescent dye (Invitrogen Life Technologies, Carlsbad, Calif., USA) (1:100) for 20 min in the dark, at room temperature. This staining allowed to distinguish the live organisms from the dead ones. […] The biofilm thickness was examined by generating the optical sections that were acquired at spacing steps of 10 μm Image J program (The National Institute of Health) was used for fluorescence analysis which calculates the fluorescence intensity per area for each color separately.
# [5] = system: S.aureus MRSA 33592 biofilm; assay: Biofilm formation of MRSA 33592, cannabinoid alone and combined with antibiotic (MBIC/FBIC/FBICI); format: cell-based; details: for MBIC AEA: AEA alone; for MBIC ARAS: ARAS alone
# [6] = system: V. harveyi quorum sensing; assay: Quorum sensing assay, relative bioluminescence of V. harveyi mutant strains; format: cell-based; details: sub-MIC concentrations, dose response up to 100 μg/ml
# Description: FIG. 6 Relative Bioluminescence Unit (LUM/(O.D(595 nm))) (RLU) of different mutant strains of bacteria V. harveyi when exposed to different sub-MIC concentrations of AEA.
# [7] = system: C. albicans biofilm; assay: MTT assay of C. albicans biofilm; format: cell-based
# Protocol: To investigate the effect of the agents on preformed biofilms, biofilms were allowed to mature in for 24 h at 37° C. in a 6-well plate. The biofilms were washed twice with PBS. The active agents were then applied. The plates were further incubated for 24 h at 37° C. The amounts of biofilms, were determined quantitatively using a standard MTT reduction assay as described previously. Briefly, biofilms were overlaid with […] of 3-(4,5-dimethyl-2-thiazolyl)-2,5-diphenyl-2H-tetrazolium bromide (MTT) and incubated for 2 h at 37° C. Under these conditions, the lightly yellowish MTT was reduced to a blue tetrazolium salt accumulated within the metabolic active biofilms. The stain was then dissolved in DMSO and the absorbance value was measured at 570 nm. The accumulation of tetrazolium salt by the reduction of MTT is proportional to the number of viable cells growing in biofilm. Prior to dissolving in DMSO, biofilms were photographed and visualized. Assay was performed in triplicate.
# [8] = system: MRSA strain 33592; assay: Colony spreading on soft agar, MRSA 33592
# Protocol: as §1
# [9] = system: S. mutans biofilm; assay: S. mutans biofilm formation inhibition; format: cell-based
# [10] = system: S.aureus MRSA 33592; assay: Growth of MRSA 33592, cannabinoid alone and combined with antibiotic (MIC/FIC/FICI); format: cell-based; details: MRSA 33592 growth; for MIC AEA: AEA alone, in µg/mL; for MIC ARAS: ARAS alone
# [11] = system: S. aureus MRSA 24433; assay: Growth of MRSA 24433, cannabinoid alone and combined with antibiotic (MIC/FIC/FICI); format: cell-based; details: MRSA 24433 growth; for MIC AEA: AEA alone; for FIC AEA: MIC of AEA in combination with methicillin
# [12] = system: S. aureus MRSA 24433 biofilm; assay: Biofilm formation of MRSA 24433, cannabinoid alone and combined with antibiotic (MBIC/FBIC/FBICI); format: cell-based; details: for MBIC AEA: AEA alone; for FBIC AEA: MBIC of AEA in combination with methicillin
# [13] = system: P. aeruginosa biofilm; assay: CLSM of treated P. aeruginosa biofilm
# [14] = system: S.aureus MRSA 43300; assay: Growth of MRSA 43300, cannabinoid alone and combined with antibiotic (MIC/FIC/FICI); format: cell-based; details: MRSA 43300 growth; for MIC AEA: AEA alone; for MIC ARAS: ARAS alone
# [15] = system: C. albicans biofilm; assay: C. albicans biofilm formation inhibition; format: cell-based; details: single C. albicans biofilm formation
# [16] = system: fluconazole resistant C. albicans strains; format: cell-based; details: each agent alone or in combination; data not shown
# [17] = system: mixed S. mutans-C. albicans; assay: Growth of C. albicans-S. mutans co-culture; format: cell-based; details: mixed S. mutans-C. albicans growth
# [18] = system: fluconazole resistant C. albicans strain DSY735 biofilm; details: Table 2
# [19] = system: fluconazole resistant C. albicans strain DSY551 biofilm; details: Table 2
# [20] = system: mixed C. albicans-S. mutans biofilm; assay: Co-species C. albicans-S. mutans biofilm formation inhibition; format: cell-based
# [21] = system: C. albicans; assay: C. albicans growth (MIC); format: cell-based; details: Candida albicans; single C. albicans growth; highest tested dose 64 μg/ml; read-out: MIC, fungal growth
# [22] = system: S. mutans; assay: S. mutans growth (MIC); format: cell-based; details: Streptococcus mutans; single S. mutans growth; read-out: MIC
# [23] = MBIC of ARAS in combination with fluconazole
smiles,measurement,setting,value
"CCCCC/C=C\C/C=C\C/C=C\C/C=C\CCCC(=O)NCCO [AEA, arachidonoyl ethanolamide]",MBIC AEA,[1]; Table 6C,>256
same,MBIC AEA,[1]; Table 8B,>256
same,FBIC AEA,"[1]; MBIC of AEA in combination with ampicillin, Table 8B",16
same,FBIC AEA,"[1]; MBIC of AEA in combination with methicillin, Table 6C",32
same,reduction of colony diameter (spreading) vs untreated control,[2]; AEA 64 μg/ml,88% and 88 ± 1.9%
same,reduction of colony diameter (spreading) vs untreated control,[3]; AEA 64 μg/ml,73% and 73 ± 2.6%
same,S. mutans biofilm formation (CLSM),[4],dose-dependent inhibition
same,MBIC AEA,[5]; Table 6A,64
same,MBIC AEA,[5]; Table 7,64
same,MBIC AEA,[5]; Table 8A,64
same,FBIC AEA,"[5]; MBIC of AEA in combination with ampicillin, Table 8A",8
same,FBIC AEA,"[5]; MBIC of AEA in combination with gentamicin, Table 7",8
same,FBIC AEA,"[5]; MBIC of AEA in combination with methicillin, Table 6A",8
same,"quorum sensing (relative bioluminescence, AUC vs control)",[6],inhibition
same,C. albicans biofilm formation (MTT assay),[7],dose-dependent inhibition
same,reduction of colony diameter (spreading) vs untreated control,[8]; AEA 64 μg/ml,84% and 84 ± 1.8%
same,inhibition of S. mutans biofilm formation,[9]; highest tested dose of 64 μg/ml,45%
same,MIC AEA,[10]; Table 6A,>256
same,MIC AEA,[10]; Table 7,>256
same,MIC AEA,[10]; Table 8A,>256
same,decrease of MIC in combination,[10]; AEA with gentamicin vs agent alone,more than 32 fold
same,FIC AEA,"[10]; MIC of AEA in combination with ampicillin, Table 8A",8
same,FIC AEA,"[10]; MIC of AEA in combination with gentamicin, Table 7",8
same,FIC AEA,"[10]; MIC of AEA in combination with methicillin, Table 6A",16
same,MIC AEA,[11]; Table 1,>64 µg/mL
same,MIC AEA,[11]; Table 6B,> 256 µg/mL
same,FIC AEA,[11]; Table 1,16 µg/mL
same,FIC AEA,[11]; Table 6B,16
same,MBIC AEA,[12]; Table 1,32 µg/mL
same,MBIC AEA,[12]; Table 6B,32
same,FBIC AEA,[12]; Table 1,8 µg/mL
same,FBIC AEA,[12]; Table 6B,8
same,layers/depth of P. aeruginosa biofilm,[13],reduced layers/depth of biofilm
same,P. aeruginosa biofilm density,[13]; compared with PEA,more significant reduction in biofilm density
same,MIC AEA,[14]; Table 6C,> 256 µg/mL
same,MIC AEA,[14]; Table 8B,> 256 µg/mL
same,FIC AEA,"[14]; MIC of AEA in combination with ampicillin, Table 8B",16
same,FIC AEA,"[14]; MIC of AEA in combination with methicillin, Table 6C",16
"CCCCC/C=C\C/C=C\C/C=C\C/C=C\CCCC(=O)N[C@@H](CO)C(=O)O [ARAS, arachidonoyl serine]","MBIC50 (minimal biofilm inhibitory concentration 50, 50% of biofilm inhibition)",[15],16 µg/mL
same,growth of fluconazole resistant fungal strains,[16],not affected
same,MBIC ARAS,[1]; Table 3C,32
same,MBIC ARAS,[1]; Table 5B,32
same,FBIC ARAS,"[1]; MBIC of ARAS in combination with ampicillin, Table 5B",8
same,FBIC ARAS,"[1]; MBIC of ARAS in combination with methicillin, Table 3C",8
same,MIC,[17],> 64 µg/mL
same,MBIC ARAS,[18]; ARAS alone,64 µg/mL
same,FBIC ARAS,[18]; [23],32 µg/mL
same,inhibition of colony spreading vs untreated control,[2]; ARAS 64 μg/ml (sub-MIC),64% and 64 ± 2.5%
same,inhibition of colony spreading vs untreated control,[3]; ARAS 32 μg/ml (sub-MIC),46% and 46 ± 2.8%
same,MBIC ARAS,[19]; ARAS alone,64 µg/mL
same,FBIC ARAS,[19]; [23],32 µg/mL
same,MBIC50,[20],32 µg/mL
same,MBIC ARAS,[5]; Table 3A,32
same,MBIC ARAS,[5]; Table 4,32
same,MBIC ARAS,[5]; Table 5A,32
same,FBIC ARAS,"[5]; MBIC of ARAS in combination with ampicillin, Table 5A",16
same,FBIC ARAS,"[5]; MBIC of ARAS in combination with gentamycin, Table 4",4
same,FBIC ARAS,"[5]; MBIC of ARAS in combination with methicillin, Table 3A",16
same,inhibition of colony spreading vs untreated control,[8]; ARAS 16 μg/ml (sub-MIC),65% and 65 ± 3.4%
same,inhibition at 8 µg/mL,"[9]; Streptococcus mutans, 8 μg/ml, read-out: inhibition of single S. mutans biofilm formation",> 50%
same,MIC,[21],> 64 µg/mL
same,MIC ARAS,[10]; Table 3A,64 µg/mL
same,MIC ARAS,[10]; Table 4,32 µg/mL
same,MIC ARAS,[10]; Table 5A,32 µg/mL
same,FIC ARAS,"[10]; MIC of ARAS in combination with ampicillin, Table 5A",8
same,FIC ARAS,"[10]; MIC of ARAS in combination with gentamycin, Table 4",4
same,FIC ARAS,"[10]; MIC of ARAS in combination with methicillin, Table 3A",16
same,MIC ARAS,"[11]; ARAS alone, Table 3B",> 256 µg/mL
same,FIC ARAS,"[11]; MIC of ARAS in combination with methicillin, Table 3B",>64
same,MBIC ARAS,"[12]; ARAS alone, Table 3B",32
same,FBIC ARAS,"[12]; MBIC of ARAS in combination with methicillin, Table 3B",16
same,MIC ARAS,[14]; Table 3C,64 µg/mL
same,MIC ARAS,[14]; Table 5B,64 µg/mL
same,FIC ARAS,"[14]; MIC of ARAS in combination with ampicillin, Table 5B",16
same,FIC ARAS,"[14]; MIC of ARAS in combination with methicillin, Table 3C",16
same,MIC,[22],64 µg/mL
